Assay: mn = molality of the nth substance listed, in mol/kg
Conditions: 100 kPa, Liquid; for viscosity: Capillary tube (Ostwald / Ubbelohde) method; for speed of sound: Frequency=2 MHz, Linear variable-path acoustic interferometer; for mass density: Vibrating tube method

CC(C)C[P+](C)(CC(C)C)CC(C)C.Cc1ccc(S(=O)(=O)[O-])cc1 [triisobutylmethylphosphonium p-toluenesulfonate] + O
Conditions | mass density, 308.15 K [kg/m3] | mass density, 313.15 K [kg/m3] | speed of sound, 308.15 K [m/s] | speed of sound, 313.15 K [m/s] | viscosity, 308.15 K [mPa·s] | viscosity, 313.15 K [mPa·s]
m1 = 0.0253 | 994.73 | 992.9 | 1528.8 | 1538.7 | 0.7415 | 0.6717
m1 = 0.053 | 995.49 | 993.66 | 1536.4 | 1545.1 | 0.7656 | 0.692
m1 = 0.0791 | 996.21 | 994.36 | 1541.7 | 1551.5 | 0.7883 | 0.7111
m1 = 0.1003 | 996.79 | 994.92 | 1545.6 | 1556.3 | 0.8068 | 0.7266
m1 = 0.2056 | 999.66 | 997.66 | 1566.2 | 1575.1 | 0.8989 | 0.8042
m1 = 0.2689 | 1001.35 | 999.26 | 1577.9 | 1584.7 | 0.9546 | 0.851
m1 = 0.3193 | 1002.66 | 1000.5 | 1587.2 | 1592.3 | 0.999 | 0.8883
m1 = 0.3643 | 1003.8 | 1001.59 | 1592.7 | 1598.1 | 1.039 | 0.9218
m1 = 0.4345 | 1005.51 | 1003.25 | 1602 | 1607.3 | 1.101 | 0.9741
m1 = 0.5175 | 1007.42 | 1005.14 | 1612.8 | 1617.1 | 1.175 | 1.036
